In test [1] the target is T1, SUMO-activating enzyme (Homo sapiens, UniProt Q9UBT2). Put plainly: blockers of UBC9-mediated SUMO conjugation – biochemical, AlphaScreen, SUMOylation inhibitor project, confirmation (AID 2018). The format is functional. In general terms: Alpha assays give light when donor and acceptor beads are brought close together.
Test [2] deals with T1, SUMO-activating enzyme. Nature of the test: blockers of SAE1/SAE2–UBC9 SUMO transfer – biochemical, HTRF, uHTS, primary screen (AID 2006). In kind it is protein-complex assay.
The target of test [3] is T2, Calpain-2 catalytic subunit (Sus scrofa, UniProt P43367).
T2 sequence (P43367 whole entry): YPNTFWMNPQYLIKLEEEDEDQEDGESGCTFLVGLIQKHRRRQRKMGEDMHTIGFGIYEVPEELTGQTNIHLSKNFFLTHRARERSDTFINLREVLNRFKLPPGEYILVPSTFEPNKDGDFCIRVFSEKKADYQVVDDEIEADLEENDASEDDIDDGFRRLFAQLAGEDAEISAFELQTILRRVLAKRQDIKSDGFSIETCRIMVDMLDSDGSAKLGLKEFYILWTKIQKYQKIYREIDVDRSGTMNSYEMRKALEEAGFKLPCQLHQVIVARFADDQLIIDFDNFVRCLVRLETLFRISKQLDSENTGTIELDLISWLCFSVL
Nature of the test: m-calpain protease blockers, concentration series – biochemical, fluorogenic peptide substrate, dose response (AID 1420). The format is functional.

Test [4] deals with Bifunctional protein GlmU (Mycobacterium tuberculosis, UniProt P9WMN3). Put plainly: Inhibitors of Mycobacterial Glucosamine-1-phosphate acetyl transferase (GlmU). Secondary screen. The arrangement: species or system Mycobacterium tuberculosis H37Rv.
Chain of Bifunctional protein GlmU (P9WMN3 whole entry): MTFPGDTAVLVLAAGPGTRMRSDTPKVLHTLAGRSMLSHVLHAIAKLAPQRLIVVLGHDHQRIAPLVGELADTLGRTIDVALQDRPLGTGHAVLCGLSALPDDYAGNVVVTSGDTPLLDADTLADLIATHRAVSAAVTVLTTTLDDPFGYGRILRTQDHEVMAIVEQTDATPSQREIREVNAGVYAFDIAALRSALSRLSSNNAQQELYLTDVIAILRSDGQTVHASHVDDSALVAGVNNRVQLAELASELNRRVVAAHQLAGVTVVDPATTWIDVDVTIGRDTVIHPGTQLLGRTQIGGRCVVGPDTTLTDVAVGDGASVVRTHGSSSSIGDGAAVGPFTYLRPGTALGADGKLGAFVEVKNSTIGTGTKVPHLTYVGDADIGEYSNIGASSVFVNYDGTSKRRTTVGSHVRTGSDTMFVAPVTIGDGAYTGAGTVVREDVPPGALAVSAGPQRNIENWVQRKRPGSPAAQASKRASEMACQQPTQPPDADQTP
Test [5] concerns the target Induced myeloid leukemia cell differentiation protein Mcl-1 (Homo sapiens, UniProt Q07820). In kind it is functional.
Test [6] concerns the target T3, Caspase-6 (Homo sapiens, UniProt P55212).
T3 sequence (P55212 whole entry): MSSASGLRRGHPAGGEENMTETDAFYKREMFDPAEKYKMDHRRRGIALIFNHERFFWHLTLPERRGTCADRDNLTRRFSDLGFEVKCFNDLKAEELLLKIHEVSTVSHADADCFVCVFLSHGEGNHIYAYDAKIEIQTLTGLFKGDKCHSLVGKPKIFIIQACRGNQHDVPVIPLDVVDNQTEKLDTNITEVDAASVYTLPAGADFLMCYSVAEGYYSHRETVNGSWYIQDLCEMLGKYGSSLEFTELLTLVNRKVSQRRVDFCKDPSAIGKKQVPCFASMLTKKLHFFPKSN
Put plainly: inhibition of CASP6 peptide cleavage – biochemical, VEID-R110 fluorescence, cherry-pick, dose response (AID 720632).

For test [7], the target named is Transthyretin (Homo sapiens, UniProt P02766). Put plainly: Luminescence-based cell-based high throughput dose response assay to identify activators of Transthyretin (TTR) transcription. The format is functional.
Test [8] addresses RNA-editing ligase 1, mitochondrial (Trypanosoma brucei brucei, UniProt P86926). Nature of the test: inhibition of trypanosome RNA editing ligase – biochemical, fluorescence, Trypanosoma brucei, dose response (AID 1117295). The format is functional.
Test [9] is described as follows: growth inhibition of yeast DHODH-expressing 3D7 parasites – SYBR Green, dry powder samples, dose response (AID 1159570).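 Also: parasite growth measured after 72 hours of compound exposure.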 The format is functional, cell-based.
Test [10] can be described thus: toxicity to human HepG2 hepatoma cells – cell-based, plate reader, dry powder samples, cytotoxicity control, dose response (AID 1159569).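 Also: inhibitor potency with signal falling toward the positive control level.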 In kind it is functional.
Test [11] can be described thus: P. falciparum Dd2 growth inhibitors, dose response, SYBR Green, cherry-picked samples (AID 1159567). In kind it is functional, cell-based.
The nature of test [12]: antimalarial activity against Dd2 parasites – SYBR Green fluorescence, erythrocytes, dry powder, set 2, dose response (AID 1159574). The format is functional, cell-based.
Test [13] can be described thus: Dd2 malaria parasite growth inhibition potency – SYBR Green, dry powder samples, dose response (AID 1159566).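 Also: potency for growth inhibition with lower SYBR green DNA signal.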 In kind it is functional, cell-based.
The nature of test [14]: growth inhibition of PfATP4-mutant resistant parasites – NITD609-resistant line, SYBR Green, dry powder, dose response (AID 1159571).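 Also: parasites synchronized at ring stage by sorbitol before testing.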 The format is functional, cell-based.
The nature of test [15]: CellTiter-Glo luminescence survival assay, SW480 colon tumor line, concentration-response curve, half-maximal inhibitory concentration (AID 1117338). The format is functional.
The nature of test [16]: RKO cell viability reduction, dose response, CellTiter-Glo luminescence (AID 1117322). In kind it is functional.
Test [17] in a line: cytotoxicity toward HCT116 cells – cell-based, CellTiter-Glo luminescence, IC50, dose response (AID 1117332). The format is functional. Particulars: HCT-116. (ATP-based viability assays read luminescence as a measure of living cells.)
Test [18] is described as follows: SNU-C1 cell viability reduction, dose response, CellTiter-Glo luminescence (AID 1117323). The format is functional, cell-based.
Test [19] in a line: cytotoxicity toward Colo320 cells – cell-based, CellTiter-Glo luminescence, IC50, dose response (AID 1117334). In kind it is functional. The settings on record: COLO 320.
The nature of test [20]: cytotoxicity toward HT-29 cells – cell-based, CellTiter-Glo luminescence, IC50, dose response (AID 1117330). The format is functional.
Test [21] is described as follows: Reduced DLD-1 viability, concentration-response, CellTiter-Glo luminescence (AID 1117352). In kind it is functional.
Test [22] can be described thus: HCT116 cell viability decrease, GSK3B pretreatment – CellTiter-Glo, IC50, dose response (AID 1117339). The format is functional. The settings on record: HCT-116.

Calls of active or inactive are those of the source. A value given as a limit tells only on which side of the number the result lay.

T1 sequence (Q9UBE0 whole entry): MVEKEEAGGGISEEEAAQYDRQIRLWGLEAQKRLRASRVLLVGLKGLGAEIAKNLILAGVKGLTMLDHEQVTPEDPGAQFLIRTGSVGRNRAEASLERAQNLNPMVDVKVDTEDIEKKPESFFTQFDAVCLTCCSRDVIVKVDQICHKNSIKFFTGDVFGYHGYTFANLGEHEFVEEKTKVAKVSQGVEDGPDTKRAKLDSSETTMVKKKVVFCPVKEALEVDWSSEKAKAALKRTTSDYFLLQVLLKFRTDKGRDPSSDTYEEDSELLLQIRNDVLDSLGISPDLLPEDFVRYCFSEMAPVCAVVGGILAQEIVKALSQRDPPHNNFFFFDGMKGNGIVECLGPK
T1 sequence (Q9UBT2 whole entry): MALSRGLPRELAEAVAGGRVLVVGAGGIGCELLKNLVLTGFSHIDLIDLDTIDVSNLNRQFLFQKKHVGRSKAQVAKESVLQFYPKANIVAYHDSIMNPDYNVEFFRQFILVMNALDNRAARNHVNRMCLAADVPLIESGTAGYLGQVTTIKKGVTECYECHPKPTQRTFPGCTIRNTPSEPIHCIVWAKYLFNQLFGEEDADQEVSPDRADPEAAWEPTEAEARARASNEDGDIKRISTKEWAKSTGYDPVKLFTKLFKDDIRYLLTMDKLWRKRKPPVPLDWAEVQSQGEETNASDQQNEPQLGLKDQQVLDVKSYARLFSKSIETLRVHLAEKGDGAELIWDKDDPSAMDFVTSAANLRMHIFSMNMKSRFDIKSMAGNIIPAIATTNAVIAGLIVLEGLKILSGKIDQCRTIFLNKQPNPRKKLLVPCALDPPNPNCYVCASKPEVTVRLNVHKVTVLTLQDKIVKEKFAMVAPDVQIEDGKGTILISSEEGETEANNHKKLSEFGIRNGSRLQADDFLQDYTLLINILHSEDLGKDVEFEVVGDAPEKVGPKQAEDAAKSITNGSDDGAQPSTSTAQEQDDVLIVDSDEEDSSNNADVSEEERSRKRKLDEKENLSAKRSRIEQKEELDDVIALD
Chain of Induced myeloid leukemia cell differentiation protein Mcl-1 (Q07820 whole entry): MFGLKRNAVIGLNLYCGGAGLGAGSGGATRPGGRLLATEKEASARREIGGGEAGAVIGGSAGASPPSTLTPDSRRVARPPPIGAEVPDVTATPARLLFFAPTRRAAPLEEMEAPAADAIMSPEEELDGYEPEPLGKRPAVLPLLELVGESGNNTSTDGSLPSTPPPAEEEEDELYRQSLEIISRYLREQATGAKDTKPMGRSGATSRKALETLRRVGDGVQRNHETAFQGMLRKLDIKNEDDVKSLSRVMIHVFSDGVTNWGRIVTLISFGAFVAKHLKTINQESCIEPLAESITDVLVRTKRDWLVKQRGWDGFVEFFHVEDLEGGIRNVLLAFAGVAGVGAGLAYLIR
Chain of RNA-editing ligase 1, mitochondrial (P86926 whole entry): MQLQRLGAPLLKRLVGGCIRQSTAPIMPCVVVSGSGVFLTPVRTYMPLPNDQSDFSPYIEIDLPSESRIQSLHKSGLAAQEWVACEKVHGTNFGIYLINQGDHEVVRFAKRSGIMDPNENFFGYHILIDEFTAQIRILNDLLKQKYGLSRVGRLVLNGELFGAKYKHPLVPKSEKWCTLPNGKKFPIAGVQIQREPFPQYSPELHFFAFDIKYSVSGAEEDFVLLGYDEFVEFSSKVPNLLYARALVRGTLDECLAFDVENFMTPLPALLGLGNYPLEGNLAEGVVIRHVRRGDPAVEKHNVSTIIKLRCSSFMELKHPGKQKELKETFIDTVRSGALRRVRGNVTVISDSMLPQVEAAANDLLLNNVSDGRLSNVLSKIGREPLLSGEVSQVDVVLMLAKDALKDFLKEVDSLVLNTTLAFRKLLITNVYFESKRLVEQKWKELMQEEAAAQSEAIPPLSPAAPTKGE

A word on the IC50: it is the concentration needed to halve the response being measured. Usually AC50 stands for the concentration at which the activity in the assay is half-maximal. Regarding `O=C(O)c1cccc(Cn2c(Cl)c(/C=N/NC(=O)c3cc4ccccc4cc3O)sc2=O)c1`, the IC50 is 1860 nM (active) in test [1]; 24100 nM (active) in test [2]; > 50000 nM (not active) in [3]; 134000 nM (active) in test [4]; 3740 nM (active) in [5]. In [6], the AC50 was 18100 nM (active).

As usually defined, the EC50 is the midpoint of the concentration-response curve. Take `Cc1ccc(/C=N/NC(=O)c2csc(C)c2)o1`: in test [7], the EC50 was > 167000 nM (inactive).

For `COC(=O)C1=C(C)N(Cc2cccc(C(F)(F)F)c2)C(NCc2cc(OC)c(OC)c(OC)c2)=NC1c1ccccc1C(F)(F)F` (configuration not stated), the IC50 in test [8] was > 96600 nM (inactive).

For `COc1cccc(C#Cc2ccc([C@H]3[C@@H](CO)N4C(=O)CN(C(=O)Cc5ccccc5)C[C@H]34)cc2)c1`, the AC50 in test [9] was 114 nM (active); in [10], 21100 nM (active); in test [11], < 300 nM (active); in [12], 19.5 nM (active); in test [13] it was 30.1 nM (active); in test [14], 36.3 nM (active).

As for `O=C(Nc1ccc(Br)cc1)c1cc(Br)c(Br)s1` [TIBROFAN], the IC50 was 123 nM (active) in test [15]; 431 nM (active) in test [16]; 541 nM (active) in test [17]; 1100 nM (active) in test [18]; 18 nM (active) in test [19]; 520 nM (active) in [20]. The IC50 in [21] was 335 nM (active); in [22] it was 342 nM (active).
